# Laboratory results as given in patent publication US10676527B2, “Methods and compositions for modulation of blood-neural barrier” (Ludwig Institute for Cancer Research Ltd, priority 2006, dated 2020).
# Where a name gives a salt, the structure may show the parent alone.
# Assays:
# [1] = target: PDGFR-α (Homo sapiens, UniProt P16234); settings: known from the art; cited from earlier work
# [2] = test system: BBB; assay: Evans Blue extravasation (BBB opening) after intraventricular injection; format: in vivo; settings: Example 1, FIG. 1; C57BL6 mice, 2 μl intraventricular, 3 μM, 1 hour after injection
# Experimental: (§1) Wild type C57BL6 mice (10 Week old) were injected intraventricularly into the dorsal third ventricle with 2 μl of PBS, active PDGF-AA, PDGF-BB (both from Preprotech Inc.) and PDGF-CC (see below) (3 μM). Evans Blue was given intravenously immediately after the injection. One hour after the injection, the animals were perfused with PBS and the brain tissue was removed and processed for Evans Blue extravasation.
# as §1, with “of either” for “of”, “PBS, wild type murine tPA (3 μM),” for “PBS,”, “active” for “active PDGF-AA, PDGF-BB (both from Preprotech Inc.) and”, “(3 μM), or wild type murine tPA (3 μM) plus active PDGF-CC” for “(see below)”
# Wt C57BL6 mice (10 Week old) were injected intraventricularly with 3 μl of either PBS, wild type murine tPA (3 μM), wild type murine tPA (3 μM) with rabbit anti-PDGF-CC (150 μg/ml). Evans Blue was given intravenously immediately after the injection. One hour after the injection, the animals were perfused with PBS and the brain tissue was removed and processed for Evans Blue extravasation.
# PDGFR-α, sequence (P16234 24-1089, species assumed): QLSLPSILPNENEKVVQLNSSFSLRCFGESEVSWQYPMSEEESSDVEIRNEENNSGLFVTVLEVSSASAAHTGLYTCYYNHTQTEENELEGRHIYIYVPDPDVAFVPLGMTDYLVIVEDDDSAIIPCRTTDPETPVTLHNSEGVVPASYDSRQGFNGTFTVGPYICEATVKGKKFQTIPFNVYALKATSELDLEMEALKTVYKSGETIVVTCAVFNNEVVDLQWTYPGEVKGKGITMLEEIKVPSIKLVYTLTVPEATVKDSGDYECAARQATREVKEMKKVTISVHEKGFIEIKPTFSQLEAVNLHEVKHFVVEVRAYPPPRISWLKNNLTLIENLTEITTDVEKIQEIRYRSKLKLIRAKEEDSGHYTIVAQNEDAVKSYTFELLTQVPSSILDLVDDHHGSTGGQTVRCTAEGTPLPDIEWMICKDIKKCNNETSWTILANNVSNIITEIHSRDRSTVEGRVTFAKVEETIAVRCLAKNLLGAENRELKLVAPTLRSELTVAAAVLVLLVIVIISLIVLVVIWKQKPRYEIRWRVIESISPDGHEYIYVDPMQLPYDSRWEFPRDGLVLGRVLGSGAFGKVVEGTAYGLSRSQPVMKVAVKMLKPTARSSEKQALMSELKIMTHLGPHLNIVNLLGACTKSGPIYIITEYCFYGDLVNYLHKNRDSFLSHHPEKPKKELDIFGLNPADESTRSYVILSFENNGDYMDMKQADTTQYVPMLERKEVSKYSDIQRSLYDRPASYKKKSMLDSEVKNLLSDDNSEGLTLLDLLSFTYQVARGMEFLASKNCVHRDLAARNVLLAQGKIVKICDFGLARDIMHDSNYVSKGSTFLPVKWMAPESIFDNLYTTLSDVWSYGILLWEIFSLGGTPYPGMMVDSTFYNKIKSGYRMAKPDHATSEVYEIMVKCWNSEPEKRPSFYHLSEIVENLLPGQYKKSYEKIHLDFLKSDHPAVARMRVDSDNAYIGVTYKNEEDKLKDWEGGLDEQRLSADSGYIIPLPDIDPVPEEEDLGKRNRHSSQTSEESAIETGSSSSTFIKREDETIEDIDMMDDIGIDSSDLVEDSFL
Compound,inhibition of PDGFR-α [1],vascular permeability / opening of the BBB (Evans Blue extravasation) [2]
"Cc1ccc(NC(=O)c2ccc(CN3CCN(C)CC3)cc2)cc1Nc1nccc(-c2cccnc2)n1 [Gleevec®, imatinib mesylate]",at least partially inhibit,–
PDGF-AA: active platelet-derived growth factor AA dimer (from Preprotech Inc.),–,induce increased vascular permeability
